The experiment addresses T1, BIK channels (Homo sapiens, UniProt Q96T55, A277E).
T1 construct: expressed in transfected cells
T1 sequence (Q96T55 1-294 isoform Q96T55-3 A277E): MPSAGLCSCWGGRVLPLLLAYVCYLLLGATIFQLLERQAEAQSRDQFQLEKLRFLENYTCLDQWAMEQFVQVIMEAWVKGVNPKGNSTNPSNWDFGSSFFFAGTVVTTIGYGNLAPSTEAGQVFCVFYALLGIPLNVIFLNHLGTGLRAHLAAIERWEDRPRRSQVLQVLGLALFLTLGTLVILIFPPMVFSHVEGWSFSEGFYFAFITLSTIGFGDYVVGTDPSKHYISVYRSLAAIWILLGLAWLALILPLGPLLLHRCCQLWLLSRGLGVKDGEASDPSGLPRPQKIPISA
Nature of the experiment: FlexStation / FLIPR Membrane Potential Dye assay in stable HEK293 transfectants. Type of experiment: cell-based. Here is the method: HEK293 cells stably transfected with pcDNA3.1 (circles) or the same vector allowing expression of BIK (squares) or TASK-2 (triangles) were plated in 96 well assay plates 24 h prior to analysis. Cells were incubated in 100 μl of 0.5×FLIPR Membrane Potential Dye (Molecular Devices) for 30 min. Methanadamide dilutions in DMSO were added to the wells by a FlexStation device (Molecular Devices), the fluorescence intensity changes were recorded before, during and after addition of the compound. The fluorescence intensity changes are plotted as the percent increase from the basal value recorded prior to compound addition. The values are the mean and range of duplicate wells. Similar results were obtained in three other independent experiments.
High level expression of a background/leak potassium channel such as BIK in fibroblasts results in hyperpolarization of the plasma membrane. Further, monitoring the membrane potential of these cells provides an assay for detecting small molecule blockers of BIK. We made stable HEK293 cell lines expressing BIK (and the well characterized background channel TASK2 for comparison) and characterized them using a FLIPR Membrane Potential Dye and FlexStation microplate fluorometer. […] Furthermore, BIK and TASK2 cells display a 3 to 5-fold greater change in fluorescence upon depolarization with 30 mM KCl compared to vector transfected stable cell lines. […]

As for `CCCCC/C=C\C/C=C\C/C=C\C/C=C\CCCC(=O)N[C@H](C)CO` [Methanandamide], the “selectivity of BIK channel inactivation (result in words)” value (HEK293 stably transfected with pcDNA3.1, BIK or TASK-2, fluorescence change as percent increase from basal) is reported as “partially selective inactivator of BIK”. The “fold greater increase in fluorescence (depolarization) in BIK cells than in TASK2 or vector control cells” value (compound at 100 μM, HEK293 cells stably expressing BIK vs TASK2 or vector (pcDNA3.1)) is 3 fold.

The values are drawn from US7491533B2, “Polynucleotides encoding an isolated β-islet cell two-pore domain potassium channel” (Metabolex, Inc., priority 2002, dated 2009).
